A word on the IC50: it is the midpoint of a concentration-inhibition curve.

For this test, the target named is T1, human chemokine receptor 2 isoform B (CCR2) (Homo sapiens, UniProt P41597).
T1 sequence (P41597 1-360 isoform P41597-2): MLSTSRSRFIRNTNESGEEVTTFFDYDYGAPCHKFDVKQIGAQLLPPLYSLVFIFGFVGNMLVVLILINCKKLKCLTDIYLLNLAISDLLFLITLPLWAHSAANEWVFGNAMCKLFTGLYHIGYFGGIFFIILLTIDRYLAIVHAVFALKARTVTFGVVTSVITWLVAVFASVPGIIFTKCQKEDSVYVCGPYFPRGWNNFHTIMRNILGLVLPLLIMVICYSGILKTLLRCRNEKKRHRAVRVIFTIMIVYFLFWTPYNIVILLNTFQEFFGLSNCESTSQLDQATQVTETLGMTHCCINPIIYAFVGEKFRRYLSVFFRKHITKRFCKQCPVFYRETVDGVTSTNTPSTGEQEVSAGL
Nature of the test: Calcium mobilization assay (FLIPR, MCP-1 stimulated CHOK1-CCR2B-A5 cells). The format is cell-based. The settings on record: Ca mobilisation assay, CCR2 antagonist activity, inhibition of MCP-1 induced calcium increase. Here is the method:
Calcium Mobilization Assay
CHOK1-CCR2B-A5 cells (from Euroscreen) stably overexpressing the human chemokine receptor 2 isoform B were cultured in Nutrient Hams F12 medium supplemented with 5% FBS, 100 U/ml penicillin, 100 μg/ml streptomycin, 400 μg/ml G418 and 5 μg/ml puromycin.
For the assay cells were grown overnight in 384-well black clear flat bottom polystyrene plates (Costar) at 37° C. at 5% CO2. After washing with DMEM, 20 mM Hepes, 2.5 mM probenecid, 0.1% BSA (DMEM assay buffer) cells were loaded with 4 μM Fluo-4 in the same DMEM assay buffer for 2 hours at 30° C. Excess dye was removed and cells were washed with DMEM assay buffer. 384-well compound plates were prepared with DMEM assay buffer/0.5% DMSO with or without various concentrations of test compounds. Usually compounds were tested for agonist and antagonist activity.
Test compounds were added to the assay plate and agonist activity was monitored as fluorescence for 80 seconds with a FLIPR (488 nm excitation; 510-570 nm emission; Molecular Devices). After 20-30 min. of incubation at 30° C., […] MCP-1 (R&D; Roche) was added and fluorescence was monitored again for 80 seconds. Increases in intracellular calcium are reported as maximum fluorescence after agonist exposure minus basal fluorescence before exposure. Antagonist activity is indicated as inhibitor concentration required for 50% inhibition of specific calcium increases.
Consider `CC1CN(C(CO)CCN2CCC3(CC3)[C@H](O)C2)C(=O)CCN1C(=O)Nc1cccc(Cl)c1` (stereo in doubt) [Example 63, (R)-4-[(S)-3-((S)-4-Hydroxy-6-aza-spiro[2.5]oct-6-yl)-1-hydroxymethyl-propyl]-2-methyl-5-oxo-[1,4]diazepane-1-carboxylic acid (3-chloro-phenyl)-amide], for which the IC50 was 5.1 nM. In the case of `COCC(CCN1CCC2(CC2)[C@H](O)C1)N1CC(C)N(C(=O)Nc2cccc(Cl)c2)CCC1=O` (stereo in doubt) [Example 65, (R)-4-[(S)-3-((S)-4-Hydroxy-6-aza-spiro[2.5]oct-6-yl)-1-methoxymethyl-propyl]-2-methyl-5-oxo-[1,4]diazepane-1-carboxylic acid (3-chloro-phenyl)-amide], the IC50 turned out to be 21 nM.

Regarding `COCC(CCN1CCC2(CC2)[C@H](O)C1)N1CC(C)N(C(=O)Nc2cccc(C(F)(F)F)c2)CCC1=O` (stereo in doubt) [Example 66, (R)-4-[(S)-3-((S)-4-Hydroxy-6-aza-spiro[2.5]oct-6-yl)-1-methoxymethyl-propyl]-2-methyl-5-oxo-[1,4]diazepane-1-carboxylic acid (3-trifluoromethyl-phenyl)-amide], the IC50 came out at 33 nM. Next, `COCC(CCN1CCC2(CC2)[C@H](O)C1)N1CC(C)N(C(=O)Nc2ccc(Cl)c(Cl)c2)CCC1=O` (stereo in doubt) [Example 68, (R)-4-[(S)-3-((S)-4-Hydroxy-6-aza-spiro[2.5]oct-6-yl)-1-methoxymethyl-propyl]-2-methyl-5-oxo-[1,4]diazepane-1-carboxylic acid (3,4-dichloro-phenyl)-amide]: 3 nM.

On to `COC(=O)C(CCN1CCC2(CC2)[C@H](O)C1)N1CCN(C(=O)Nc2cccc(Cl)c2)CCC1=O` (stereo partly drawn) [Example 1, (R,S)-2-[4-(3-Chloro-phenylcarbamoyl)-7-oxo-[1,4]diazepan-1-yl]-4-((S)-4-hydroxy-6-aza-spiro[2.5]oct-6-yl)-butyric acid methyl ester], for which the IC50 is 470 nM. Next, `O=C(Nc1cccc(Cl)c1)N1CCC(=O)N(C(CO)CCN2CCC3(CC3)[C@H](O)C2)CC1` (stereo partly drawn) [Example 2, (R,S)-4-[3-((S)-4-Hydroxy-6-aza-spiro[2.5]oct-6-yl)-1-hydroxymethyl-propyl]-5-oxo-[1,4]diazepane-1-carboxylic acid (3-chloro-phenyl)-amide]: 40 nM; `COC(=O)[C@H](CCN1CCC2(CC2)[C@H](O)C1)N1CCN(C(=O)Nc2cccc(Cl)c2)CCC1=O` [Example 3, (S)-2-[4-(3-Chloro-phenylcarbamoyl)-7-oxo-[1,4]diazepan-1-yl]-4-((S)-4-hydroxy-6-aza-spiro[2.5]oct-6-yl)-butyric acid methyl ester]: 270 nM; `O=C(Nc1cccc(Cl)c1)N1CCC(=O)N([C@H](CO)CCN2CCC3(CC3)[C@H](O)C2)CC1` [Example 4, 4-[(S)-3-((S)-4-Hydroxy-6-aza-spiro[2.5]oct-6-yl)-1-hydroxymethyl-propyl]-5-oxo-[1,4]diazepane-1-carboxylic acid (3-chloro-phenyl)-amide]: 10 nM.

In the case of `COCC(CCN1CCC2(CC2)[C@H](O)C1)N1CCN(C(=O)Nc2cccc(Cl)c2)CCC1=O` (stereo partly drawn) [Example 5, (R,S)-4-[3-((S)-4-Hydroxy-6-aza-spiro[2.5]oct-6-yl)-1-methoxymethyl-propyl]-5-oxo-[1,4]diazepane-1-carboxylic acid (3-chloro-phenyl)-amide], the IC50 stood at 50 nM.

Take `COCC(CCN1CCC2(CC2)[C@H](O)C1)N1CCN(C(=O)NCc2ccc(Cl)c(Cl)c2)CCC1=O` (stereo partly drawn) [Example 6, (R,S)-4-[3-((S)-4-Hydroxy-6-aza-spiro[2.5]oct-6-yl)-1-methoxymethyl-propyl]-5-oxo-[1,4]diazepane-1-carboxylic acid 3,4-dichloro-benzylamide]: the IC50 was 840 nM.

Take `COCC(CCN1CCC2(CC2)[C@H](O)C1)N1CCN(C(=O)Oc2ccc(Cl)c(Cl)c2)CCC1=O` (stereo partly drawn) [Example 7, (R,S)-4-[3-((S)-4-Hydroxy-6-aza-spiro[2.5]oct-6-yl)-1-methoxymethyl-propyl]-5-oxo-[1,4]diazepane-1-carboxylic acid 3,4-dichloro-phenyl ester]: the IC50 stood at 370 nM. On to `O=C(Oc1ccc(Cl)c(Cl)c1)N1CCC(=O)N(C(CO)CCN2CCC3(CC3)[C@H](O)C2)CC1` (stereo partly drawn) [Example 9, (R,S)-4-[3-((S)-4-Hydroxy-6-aza-spiro[2.5]oct-6-yl)-1-hydroxymethyl-propyl]-5-oxo-[1,4]diazepane-1-carboxylic acid 3,4-dichloro-phenyl ester], for which the IC50 amounted to 420 nM. Under `CN(C)C(=O)C(CCN1CCC2(CC2)[C@H](O)C1)N1CCN(C(=O)Nc2cccc(Cl)c2)CCC1=O` (stereo partly drawn) [Example 10, (R,S)-4-[1-Dimethylcarbamoyl-3-((S)-4-hydroxy-6-aza-spiro[2.5]oct-6-yl)-propyl]-5-oxo-[1,4]diazepane-1-carboxylic acid (3-chloro-phenyl)-amide] stands 780 nM. As for `O=C1CCN(C(=O)Nc2ccc(Cl)c(Cl)c2)CCN1CCCN1CCCCC1` [Example 11, 5-Oxo-4-(3-piperidin-1-yl-propyl)-[1,4]diazepane-1-carboxylic acid (3,4-dichloro-phenyl)-amide], the IC50 amounted to 980 nM. As to `O=C1CCN(C(=S)Nc2ccc(Cl)c(Cl)c2)CCN1CCCN1CCCCC1` [Example 18, 5-Oxo-4-(3-piperidin-1-yl-propyl)-[1,4]diazepane-1-carbothioic acid (3,4-dichloro-phenyl)-amide], the IC50 came out at 600 nM. Under `O=C(Nc1ccc(Cl)c(Cl)c1)N1CCN(CCCN2CCCCC2)S(=O)(=O)CC1` [Example 21, 1,1-Dioxo-2-(3-piperidin-1-yl-propyl)-[1,2,5]thiadiazepane-5-carboxylic acid (3,4-dichloro-phenyl)-amide] stands 370 nM. For the compound `O=S1(=O)CCN(C(=S)Nc2ccc(Cl)c(Cl)c2)CCN1CCCN1CCCCC1` [Example 22, 1,1-Dioxo-2-(3-piperidin-1-yl-propyl)-[1,2,5]thiadiazepane-5-carbothioic acid (3,4-dichloro-phenyl)-amide], the 50% inhibitory concentration (IC50) was 770 nM.

For the compound `C[C@@H]1CN(CCCN2CCCCC2)C(=O)CCN1C(=O)Nc1ccc(Cl)c(Cl)c1` [Example 25, (R)-2-Methyl-5-oxo-4-(3-piperidin-1-yl-propyl)-[1,4]diazepane-1-carboxylic acid (3,4-dichloro-phenyl)-amide], the IC50 is 380 nM. With `C[C@@H]1CN(CCCN2CCCCC2)C(=O)CCN1C(=S)Nc1ccc(Cl)c(Cl)c1` [Example 26, (R)-2-Methyl-5-oxo-4-(3-piperidin-1-yl-propyl)-[1,4]diazepane-1-carbothioic acid (3,4-dichloro-phenyl)-amide], the IC50 is 580 nM. Next, `O=C1CCN(C(=O)Nc2ccc(Cl)c(Cl)c2)[C@H](Cc2ccccc2)CN1CCCN1CCCCC1` [Example 27, (R)-2-Benzyl-5-oxo-4-(3-piperidin-1-yl-propyl)-[1,4]diazepane-1-carboxylic acid (3,4-dichloro-phenyl)-amide]: 540 nM.

In the case of `O=C1CCN(C(=O)Nc2ccc(Cl)c(Cl)c2)[C@H](c2ccccc2)CN1CCCN1CCCCC1` [Example 30, (R)-5-Oxo-2-phenyl-4-(3-piperidin-1-yl-propyl)-[1,4]diazepane-1-carboxylic acid (3,4-dichloro-phenyl)-amide], the IC50 was determined as 960 nM. Next, `C[C@H]1C(=O)N(CCCN2CCCCC2)CCN1C(=O)Nc1cccc(Cl)c1` [Example 35, (S)-2-Methyl-3-oxo-4-(3-piperidin-1-yl-propyl)-piperazine-1-carboxylic acid (3-chloro-phenyl)-amide]: 940 nM; `C[C@H]1C(=O)N(CCCN2CCCCC2)CCN1C(=O)Nc1ccc(Cl)c(Cl)c1` [Example 37, (S)-2-Methyl-3-oxo-4-(3-piperidin-1-yl-propyl)-piperazine-1-carboxylic acid (3,4-dichloro-phenyl)-amide]: 50 nM. Next, `C[C@H]1C(=O)N(CCCN2CCCCC2)CCN1C(=O)Nc1ccc(-c2ccccc2)cc1` [Example 38, (S)-2-Methyl-3-oxo-4-(3-piperidin-1-yl-propyl)-piperazine-1-carboxylic acid biphenyl-4-ylamide]: 210 nM; `C[C@H]1C(=O)N(CCCN2CCCCC2)CCN1C(=O)Nc1ccc2ccccc2c1` [Example 40, (S)-2-Methyl-3-oxo-4-(3-piperidin-1-yl-propyl)-piperazine-1-carboxylic acid naphthalen-2-ylamide]: 360 nM. On to `C[C@H]1C(=O)N(CCCN2CCCCC2)CCN1C(=O)Nc1ccc(F)c(Cl)c1` [Example 42, (S)-2-Methyl-3-oxo-4-(3-piperidin-1-yl-propyl)-piperazine-1-carboxylic acid (3-chloro-4-fluoro-phenyl)-amide], for which the IC50 is 110 nM.

(Values after patent US8071586B2, “Heterocyclyl compounds” (Hoffmann-La Roche Inc., priority 2008, dated 2011).)
